How the values were obtained:
Experiment in all cases: Test A greenhouse herbicide screen
Bush Bean = assay type: in vivo, bush beans; settings: POST-EMERGENCE, 16 days
Text: (§1) Seeds of crabgrass (Digitaria spp.), barnyardgrass (Echinochloa crusgalli), wild oats (Avena fatua), cassia (Cassia tora), morningglory (Ipomoea sp.), cocklebur (Xanthium spp.), sorghum, corn, soybean, rice, wheat and nutsedge tubers (Cyperus rotundus) were planted in a growth medium and treated preemergence with the chemicals dissolved in a non-phytotoxic solvent solution of the compounds of Table A. At the same time, cotton having five leaves (including cotyledonary ones), bush beans with the third trifoliate leaf expanding, crabgrass and barnyardgrass with two leaves, wild oats with two leaves, cassia with three leaves (including cotyledonary ones), morningglory and cocklebur with four leaves (including the cotyldonary ones), sorghum and corn with four leaves, soybean with two cotyledonary leaves, rice with three leaves, wheat with one leaf, and nutsedge with three-five leaves were sprayed with a non-phytotoxic solvent solution of the compounds of Table A. Other containers of the above mentioned weeds and crops were treated pre- or post-emergence with the same non-phytotoxic solvent so as to provide a solvent control. A set of untreated control plants was also included for comparison. Pre- emergence and post-emergence treated plants and controls were maintained in a greenhouse for sixteen days, then all treated plants were compared with their respective controls and rated visually for response to treatment.

Corn = assay type: in vivo; settings: 16 days
Text: as §1

Cotton = assay type: in vivo; settings: POST-EMERGENCE, 16 days
Text: as §1

Sorghum = assay type: in vivo; settings: 16 days
Text: as §1

Wild Oats = assay type: in vivo, Avena fatua; settings: 16 days
Text: as §1

Rice = assay type: in vivo; parameters: scale not given here; settings: 16 days
Text: as §1

Soybean = assay type: in vivo; parameters: scale not given here; settings: 16 days
Text: as §1

Wheat = assay type: in vivo; parameters: scale not given here; settings: 16 days
Text: as §1

Barnyardgrass = assay type: in vivo, Echinochloa crusgalli; settings: 16 days
Text: as §1

Crabgrass = assay type: in vivo, Digitaria spp.; parameters: scale not given here; settings: 16 days
Text: as §1

Morningglory = assay type: in vivo, Ipomoea sp.; settings: 16 days
Text: as §1

Cocklebur = assay type: in vivo, Xanthium spp.; settings: 16 days
Text: as §1

Cassia = assay type: in vivo, Cassia tora; parameters: scale not given here; settings: 16 days
Text: as §1

Nutsedge = assay type: in vivo, Cyperus rotundus; parameters: scale not given here; settings: 16 days
Text: as §1

COc1nc(C)nc(NC(=O)NS(=O)(=O)c2cc(Cl)cc(Cl)c2OS(C)(=O)=O)n1 [Compound 43]
3C: Bush Bean response rating (Bush Bean; 6 kg/ha) | Cotton response rating (Cotton; 6 kg/ha) | Morningglory response rating (Morningglory; PRE-EMERGENCE, 6 kg/ha)
3G: Cassia response rating (Cassia; PRE-EMERGENCE, 6 kg/ha)
0: Bush Bean response rating (Bush Bean; 2 kg/ha) | Corn response rating (Corn; POST-EMERGENCE, 2 kg/ha) | Corn response rating (Corn; POST-EMERGENCE, 6 kg/ha) | Corn response rating (Corn; PRE-EMERGENCE, 2 kg/ha) | Cotton response rating (Cotton; 2 kg/ha) | Sorghum response rating (Sorghum; POST-EMERGENCE, 2 kg/ha) | Sorghum response rating (Sorghum; POST-EMERGENCE, 6 kg/ha) | Sorghum response rating (Sorghum; PRE-EMERGENCE, 2 kg/ha) | Wild Oats response rating (Wild Oats; POST-EMERGENCE, 2 kg/ha) | Wild Oats response rating (Wild Oats; POST-EMERGENCE, 6 kg/ha) | Wild Oats response rating (Wild Oats; PRE-EMERGENCE, 2 kg/ha) | Rice response rating (Rice; POST-EMERGENCE, 2 kg/ha) | Rice response rating (Rice; POST-EMERGENCE, 6 kg/ha) | Rice response rating (Rice; PRE-EMERGENCE, 2 kg/ha) | Soybean response rating (Soybean; POST-EMERGENCE, 2 kg/ha) | Soybean response rating (Soybean; PRE-EMERGENCE, 2 kg/ha) | Soybean response rating (Soybean; PRE-EMERGENCE, 6 kg/ha) | Wheat response rating (Wheat; POST-EMERGENCE, 2 kg/ha) | Wheat response rating (Wheat; POST-EMERGENCE, 6 kg/ha) | Wheat response rating (Wheat; PRE-EMERGENCE, 2 kg/ha) | Wheat response rating (Wheat; PRE-EMERGENCE, 6 kg/ha) | Barnyardgrass response rating (Barnyardgrass; POST-EMERGENCE, 2 kg/ha) | Barnyardgrass response rating (Barnyardgrass; PRE-EMERGENCE, 2 kg/ha) | Crabgrass response rating (Crabgrass; POST-EMERGENCE, 2 kg/ha) | Crabgrass response rating (Crabgrass; POST-EMERGENCE, 6 kg/ha) | Crabgrass response rating (Crabgrass; PRE-EMERGENCE, 2 kg/ha) | Morningglory response rating (Morningglory; POST-EMERGENCE, 2 kg/ha) | Morningglory response rating (Morningglory; POST-EMERGENCE, 6 kg/ha) | Morningglory response rating (Morningglory; PRE-EMERGENCE, 2 kg/ha) | Cocklebur response rating (Cocklebur; POST-EMERGENCE, 2 kg/ha) | Cocklebur response rating (Cocklebur; POST-EMERGENCE, 6 kg/ha) | Cocklebur response rating (Cocklebur; PRE-EMERGENCE, 2 kg/ha) | Cassia response rating (Cassia; POST-EMERGENCE, 2 kg/ha) | Cassia response rating (Cassia; PRE-EMERGENCE, 2 kg/ha) | Nutsedge response rating (Nutsedge; POST-EMERGENCE, 2 kg/ha) | Nutsedge response rating (Nutsedge; POST-EMERGENCE, 6 kg/ha) | Nutsedge response rating (Nutsedge; PRE-EMERGENCE, 2 kg/ha) | Nutsedge response rating (Nutsedge; PRE-EMERGENCE, 6 kg/ha)
2G: Crabgrass response rating (Crabgrass; PRE-EMERGENCE, 6 kg/ha)
1C: Rice response rating (Rice; PRE-EMERGENCE, 6 kg/ha) | Soybean response rating (Soybean; POST-EMERGENCE, 6 kg/ha) | Barnyardgrass response rating (Barnyardgrass; POST-EMERGENCE, 6 kg/ha) | Cassia response rating (Cassia; POST-EMERGENCE, 6 kg/ha)

COc1nc(NC(=O)NS(=O)(=O)c2cc(Cl)cc(Cl)c2OS(C)(=O)=O)nc(OC)n1 [Compound 44]
5G: Cassia response rating (Cassia; PRE-EMERGENCE, 6 kg/ha)
5C: Barnyardgrass response rating (Barnyardgrass; PRE-EMERGENCE, 6 kg/ha)
3G: Soybean response rating (Soybean; POST-EMERGENCE, 6 kg/ha)
0: Bush Bean response rating (Bush Bean; 2 kg/ha) | Bush Bean response rating (Bush Bean; 6 kg/ha) | Corn response rating (Corn; POST-EMERGENCE, 2 kg/ha) | Corn response rating (Corn; POST-EMERGENCE, 6 kg/ha) | Corn response rating (Corn; PRE-EMERGENCE, 2 kg/ha) | Cotton response rating (Cotton; 2 kg/ha) | Sorghum response rating (Sorghum; POST-EMERGENCE, 2 kg/ha) | Sorghum response rating (Sorghum; PRE-EMERGENCE, 2 kg/ha) | Wild Oats response rating (Wild Oats; POST-EMERGENCE, 2 kg/ha) | Wild Oats response rating (Wild Oats; POST-EMERGENCE, 6 kg/ha) | Wild Oats response rating (Wild Oats; PRE-EMERGENCE, 2 kg/ha) | Wild Oats response rating (Wild Oats; PRE-EMERGENCE, 6 kg/ha) | Rice response rating (Rice; POST-EMERGENCE, 2 kg/ha) | Rice response rating (Rice; POST-EMERGENCE, 6 kg/ha) | Rice response rating (Rice; PRE-EMERGENCE, 2 kg/ha) | Soybean response rating (Soybean; POST-EMERGENCE, 2 kg/ha) | Soybean response rating (Soybean; PRE-EMERGENCE, 2 kg/ha) | Soybean response rating (Soybean; PRE-EMERGENCE, 6 kg/ha) | Wheat response rating (Wheat; POST-EMERGENCE, 2 kg/ha) | Wheat response rating (Wheat; POST-EMERGENCE, 6 kg/ha) | Wheat response rating (Wheat; PRE-EMERGENCE, 2 kg/ha) | Wheat response rating (Wheat; PRE-EMERGENCE, 6 kg/ha) | Barnyardgrass response rating (Barnyardgrass; POST-EMERGENCE, 2 kg/ha) | Barnyardgrass response rating (Barnyardgrass; POST-EMERGENCE, 6 kg/ha) | Barnyardgrass response rating (Barnyardgrass; PRE-EMERGENCE, 2 kg/ha) | Crabgrass response rating (Crabgrass; POST-EMERGENCE, 2 kg/ha) | Crabgrass response rating (Crabgrass; POST-EMERGENCE, 6 kg/ha) | Crabgrass response rating (Crabgrass; PRE-EMERGENCE, 2 kg/ha) | Crabgrass response rating (Crabgrass; PRE-EMERGENCE, 6 kg/ha) | Morningglory response rating (Morningglory; POST-EMERGENCE, 2 kg/ha) | Morningglory response rating (Morningglory; PRE-EMERGENCE, 2 kg/ha) | Cocklebur response rating (Cocklebur; POST-EMERGENCE, 2 kg/ha) | Cocklebur response rating (Cocklebur; POST-EMERGENCE, 6 kg/ha) | Cocklebur response rating (Cocklebur; PRE-EMERGENCE, 2 kg/ha) | Cassia response rating (Cassia; POST-EMERGENCE, 2 kg/ha) | Cassia response rating (Cassia; POST-EMERGENCE, 6 kg/ha) | Cassia response rating (Cassia; PRE-EMERGENCE, 2 kg/ha) | Nutsedge response rating (Nutsedge; POST-EMERGENCE, 2 kg/ha) | Nutsedge response rating (Nutsedge; POST-EMERGENCE, 6 kg/ha) | Nutsedge response rating (Nutsedge; PRE-EMERGENCE, 2 kg/ha) | Nutsedge response rating (Nutsedge; PRE-EMERGENCE, 6 kg/ha)
5H: Cocklebur response rating (Cocklebur; PRE-EMERGENCE, 6 kg/ha)
2C: Cotton response rating (Cotton; 6 kg/ha) | Sorghum response rating (Sorghum; POST-EMERGENCE, 6 kg/ha) | Sorghum response rating (Sorghum; PRE-EMERGENCE, 6 kg/ha) | Morningglory response rating (Morningglory; PRE-EMERGENCE, 6 kg/ha)
1C: Rice response rating (Rice; PRE-EMERGENCE, 6 kg/ha)

From patent publication EP0044212B1, “Herbicidal o-alkylsulfonyloxy- and o-alkylsulfonylamino-benzenesulfonamides” (E.I. DU PONT DE NEMOURS AND COMPANY, priority 1980, dated 1982)
